Measured values as given in ChEMBL document CHEMBL1122749, “Synthesis and biological activity of 5-fluoro-2',3'-dideoxy-3'-fluorouridine and its 5'-phosphate” (J Med Chem, 1984).

Legend:
[1] = tested on: L1210; experiment: In vitro concentration required for 50% inhibition (IC50) of growth of L1210 mouse leukemia cells in culture; format: functional, cell-based
[2] = target: T1, Thymidine phosphorylase (Mus musculus, UniProt Q99N42); experiment: In vitro non-competitive inhibition of cleavage of Thymidine (dThd) phosphorylase isolated from Lewis lung carcinoma.; format: tissue-based
T1 sequence (Q99N42 whole entry): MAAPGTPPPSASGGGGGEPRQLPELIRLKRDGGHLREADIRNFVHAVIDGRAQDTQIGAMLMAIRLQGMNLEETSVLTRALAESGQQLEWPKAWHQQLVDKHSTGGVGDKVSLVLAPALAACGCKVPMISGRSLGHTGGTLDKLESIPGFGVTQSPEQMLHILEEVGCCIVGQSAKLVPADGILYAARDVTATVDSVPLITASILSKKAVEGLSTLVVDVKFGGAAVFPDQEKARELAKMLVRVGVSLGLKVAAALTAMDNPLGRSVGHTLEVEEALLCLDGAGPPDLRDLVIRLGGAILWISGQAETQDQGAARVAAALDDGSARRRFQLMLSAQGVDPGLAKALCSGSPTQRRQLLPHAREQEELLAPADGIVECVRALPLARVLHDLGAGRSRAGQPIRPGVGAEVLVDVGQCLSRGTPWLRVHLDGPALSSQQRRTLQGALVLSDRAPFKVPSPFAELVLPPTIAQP

[3] = Apparent rate constant Koff for inactivation of dTMP synthase.
[4] = Apparent rate constant Kon for inactivation of dTMP synthase.
[5] = target: Thymidylate synthase (Lactobacillus casei); experiment: In vitro competitive inhibition of dTMP synthetase with respect to substrate dUMP.
[6] = tested on: L1210; experiment: In vitro concentration required for 50% inhibition (IC50) of growth of L1210 mouse leukemia cells in culture.; format: functional, cell-based

O=c1[nH]c(=O)n([C@H]2C[C@H](F)[C@@H](CO)O2)cc1F
IC50 [1]: 3.4 µM | Ki [2]: 1700 µM

O=c1[nH]c(=O)n(C2CC(F)C(COP(=O)(O)O)O2)cc1F (stereo unspecified)
K off [3]: 0.000233 s⁻¹ | Kon [4]: 0.029 s⁻¹ | Ki [5]: 130 µM

O=c1[nH]c(=O)n([C@H]2C[C@H](O)[C@@H](CO)O2)cc1F [FLOXURIDINE]
IC50 [6]: 0.0005 µM
